Assay results taken from patent publication US12612386B2, “Heteroaryl-triazole compounds as pesticides” (Bayer Aktiengesellschaft, priority 2020, dated 2026).

Columns and labels:
Assay type in all cases: in vivo
[1] = system: green peach aphid (Myzus persicae); assay: Myzus persicae spray test (MYZUPE); settings: 120 h, 100 g/ha, after 5 days
In short: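 Percent aphid kill, with 0% meaning none killed, was read 5 days after spraying. The preparation (acetone–DMF solvent, water with 1000 ppm emulsifier) was applied to Brassica pekinensis leaf disks carrying mixed-instar green peach aphids.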

[2] = system: larvae of the southern green stink bug (Nezara viridula); assay: whole plant or invertebrate; settings: 96 h
In short: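 Percent mortality of southern green stink bug larvae was recorded at day 4, with 100% meaning all dead. The larvae were placed on barley sprayed with the test solution. That solution was prepared from acetone/dimethylformamide concentrate diluted in emulsifier-containing water (1000 ppm).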

[3] = system: adult cat fleas (Ctenocephalides felis); assay: Ctenocephalides felis in-vitro contact test, adult cat flea; settings: 5 μg/cm^2 (=500 g/ha), after 48 hours
Method: Ctenocephalides felis—In-Vitro Contact Tests Adult Cat Flea
(§1) 9 mg compound is solved in 1 mL acetone and diluted with acetone to the desired concentration. 250 μL of the test solution is filled in 25 mL glass test tubes and homogeneously distributed on the inner walls by rotation and tilting on a shaking device (2 h at 30 rpm). With a compound concentration of 900 ppm, an inner surface of 44.7 cm^2 and a homogeneous distribution, a dose of 5 μg/cm^2 is achieved.
(§2) After the solvent has evaporated, each test tube is filled with 5-10 adult cat fleas (Ctenocephalides felis), closed with a perforated lid and incubated in a lying position at room temperature and relative humidity. After 48 hours efficacy is determined. The fleas are patted on the ground of the tubes and are incubated on a heating plate at 45-50° C. for at most 5 minutes. Immotile or uncoordinated moving fleas, which are not able to escape the heat by climbing upwards, are marked as dead or moribund.
An efficacy of 100% means all fleas are dead or moribund; 0% means no fleas are dead or moribund.

[4] = system: cattle tick larvae (Rhipicephalus microplus), strain Parkhurst, resistant against synthetic pyrethroids; assay: Rhipicephalus (Boophilus) microplus in-vitro contact test, larval cattle tick; settings: 5 μg/cm^2 (=500 g/ha), after 48 hours
Method: Rhipicephalus (Boophilus) Microplus—In-Vitro Contact Tests Larval Cattle Tick (Strain Parkhurst, Resistant Against Synthetic Pyrethroids)
as §1
After the solvent has evaporated, each test tube is filled with 20-50 cattle tick larvae (Rhipicephalus microplus), closed with a perforated lid and incubated in a horizontal position at 85% relative humidity and 27° C. in an incubator. After 48 hours efficacy is determined. The larvae are patted on the ground of the tubes and negative geotactic behavior is recorded.
An efficacy of 100% means all larvae are dead or moribund; 0% means no larvae are dead or moribund.

[5] = system: adult brown dog ticks (Rhipicephalus sanguineus); assay: Rhipicephalus sanguineus in-vitro contact test, adult brown dog ticks; settings: 48 h, read-out: efficacy (ticks dead or moribund)
Method: Rhipicephalus sanguineus—In-Vitro Contact Tests with Adult Brown Dog Ticks
as §1
as §2, with “brown dog ticks (Rhipicephalus sanguineus),” for “cat fleas (Ctenocephalides felis),”, “ticks” for “fleas”, “ticks,” for “fleas,”
An efficacy of 100% means all ticks are dead or moribund; 0% means no ticks are dead or moribund.

[6] = system: fall armyworm larvae (Spodoptera frugiperda); assay: whole plant or invertebrate; settings: 168 h
In short: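 Percent kill of Spodoptera frugiperda caterpillars, read 7 days after infestation of dried, spray-treated Zea mays leaf pieces. Spray preparation: compound in acetone plus dimethylformamide, diluted with emulsifier-containing water.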

[7] = system: larvae of the banded cucumber beetle (Diabrotica balteata); assay: Diabrotica balteata spray test; settings: 168 h, 100 g/ha (=32 μg/well), after 7 days, read-out: efficacy (seedling growth)
In short: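 Efficacy is seedling survival after 7 days, where 0% means no seedlings grew and 100% means growth equal to untreated, uninfested controls. Wheat seedlings, germinated on agar for 1 day, were sprayed with the aqueous emulsifier dilution (acetone/DMF solvent) and then exposed to 10–20 banded cucumber beetle larvae.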

[8] = system: brown planthopper (Nilaparvata lugens); assay: Nilaparvata lugens spray test; settings: 96 h
Method: Nilaparvata lugens—Spray Test
• Solvent: 78.0 parts by weight of acetone • 1.5 parts by weight of dimethylformamide • Emulsifier: alkylarylpolyglycol ether
To produce a suitable preparation of active compound, 1 part by weight of active compound is mixed with the stated amount of solvents and is diluted with water, containing an emulsifier concentration of 1000 ppm, to the desired concentration. Further test concentrations are prepared by dilution with emulsifier containing water.
Rice plants (Oryza sativa) are sprayed with a preparation of the active ingredient of the desired concentration and the plants are infested with the brown planthopper (Nilaparvata lugens).
After 4 days mortality in % is determined. 100% means all planthoppers have been killed and 0% means none of the planthoppers have been killed.

[9] = system: adult mosquitoes Aedes aegypti strain MONHEIM; assay: Aedes aegypti test (AEDSAE surface treatment & contact assay); settings: 24 hours after contact, read-out: efficacy (mortality); for mortality at 20 mg/m2: surface concentration 20 mg/m^2, 30 min exposure
Method: Aedes aegypti Test (AEDSAE Surface Treatment & Contact Assay)
Solvent: Aceton+2000 ppm rapeseed oil methyl ester (RME)
This solution is pipetted onto a glazed tile and after evaporation of the acetone, adult mosquitoes of the species Aedes aegypti strain MONHEIM are placed onto the dried surface. The exposure time is 30 minutes. Mortality in percent (%) is determined 24 hours after contact of the insects to the treated surface. 100% mortality means that all tested insects are dead, whereas 0% means that no insect died.

Compound | mortality at 100 g/ha [1] | mortality at 500 g/ha [2] | efficacy (fleas dead or moribund) [3] | efficacy (larvae dead or moribund) [4] | pest or weed control at 5 µg/cm2, 500 g/ha [5] | mortality at 100 g/ha [6] | pest or weed control at 32 µg/disc, 100 g/ha [7] | mortality at 500 g/ha [8] | mortality at 100 g/ha [2] | mortality at 20 mg/m2 [9] | mortality at 4 mg/m2 ([9]; surface concentration 4 mg/m^2, 30 min exposure)
Cc1nc([C@H](C)NC(=O)c2cc(Br)cc(OC(F)F)c2)n(-c2cc(C(N)=O)ncn2)n1 [I-89] | 100% | 100% | 100% | 100% | 100% | 100% | 100% | – | – | – | –
C[C@H](NC(=O)c1cc(Cl)cc(S(=O)(=O)C(F)(F)F)c1)c1ncnn1-c1cc(C#N)ncn1 [I-7] | 100% | 100% | – | – | – | 100% | 100% | 90% | 90% | 80 to 100% | –
CC(C)N(C)C(=O)c1cc(-n2ncnc2[C@H](C)NC(=O)c2cc(OC(F)F)cc(C3CC3)c2)ncn1 [I-68] | – | – | 100% | 100% | 100% | 100% | – | – | – | – | –
C[C@H](NC(=O)c1cc(Br)cc(Br)c1)c1ncnn1-c1cc(C#N)ncn1 [I-4] | – | – | – | 100% | 100% | 100% | 100% | – | – | 80 to 100% | –
C[C@H](NC(=O)c1cc(C(F)(F)F)cc(C(F)(F)F)c1)c1ncnn1-c1cc(C(N)=O)ncn1 [I-135] | – | 100% | – | 100% | 100% | 100% | 80% | 100% | 100% | – | –
Cc1nc([C@H](C)NC(=O)c2cc(Br)cc(OC(F)(F)F)c2)n(-c2cc(C#N)ncn2)n1 [I-28] | – | 90% | – | 100% | 100% | 100% | 100% | – | – | – | –
CC(C)N(C)C(=O)c1cc(-n2ncnc2[C@H](C)NC(=O)c2cc(Br)cc(OC(F)(F)F)c2)ncn1 [I-55] | 100% | – | 100% | 100% | 100% | 100% | 100% | – | – | – | –
CC(C)N(C)C(=O)c1cc(-n2ncnc2[C@H](C)NC(=O)c2cc(Cl)cc(OC(F)(F)F)c2)ncn1 [I-56] | 90% | – | 100% | 100% | 100% | 100% | 100% | – | – | – | –
CNC(=O)c1cc(-n2nc(C)nc2[C@H](C)NC(=O)c2cc(Br)cc(OC(F)(F)F)c2)ncn1 [I-65] | 90% | 100% | 100% | 100% | 100% | 100% | 100% | – | – | – | –
CNC(=O)c1cc(-n2ncnc2[C@H](C)NC(=O)c2cc(Br)cc(Br)c2)ncn1 [I-46] | 90% | 100% | 100% | 100% | – | 100% | 100% | – | – | – | –
C[C@H](NC(=O)c1cc(C#N)cc(OC(F)(F)F)c1)c1ncnn1-c1cc(C#N)ncn1 [I-38] | – | 100% | 90% | 100% | – | 100% | 100% | 100% | – | – | –
C[C@H](NC(=O)c1cc(C(F)(F)F)cc(S(C)(=O)=O)c1)c1ncnn1-c1cc(C#N)ncn1 [I-2] | – | – | – | 100% | – | – | 80% | – | – | 80 to 100% | 80 to 100%
C[C@H](NC(=O)c1cc(OC(F)F)cc(C2CC2)c1)c1ncnn1-c1cc(C(N)=O)ncn1 [I-66] | 90% | 100% | 90% | 100% | – | 100% | 100% | – | – | – | –
CNC(=O)c1cc(-n2nc(C)nc2[C@H](C)NC(=O)c2cc(Br)cc(Br)c2)ncn1 [I-52] | – | – | 100% | 100% | 100% | 100% | 100% | – | – | – | –
C[C@H](NC(=O)c1cc(Cl)cc(Cl)c1)c1ncnn1-c1cc(C(N)=O)ncn1 [I-69] | 70% | 100% | 100% | 100% | 100% | 100% | 100% | – | – | – | –
C[C@H](NC(=O)c1cc(Cl)cc(OC(F)(F)F)c1)c1ncnn1-c1cc(C#N)ncn1 [I-18] | 90% | 100% | 90% | 100% | 100% | 100% | 100% | – | – | – | –
CNC(=O)c1cc(-n2nc(C)nc2[C@H](C)NC(=O)c2cc(Cl)cc(OC(F)(F)F)c2)ncn1 [I-87] | 100% | 100% | 100% | 100% | 100% | 100% | 100% | – | – | – | –
Cc1nc([C@H](C)NC(=O)c2cc(Cl)cc(SC(F)(F)F)c2)n(-c2cc(C#N)ncn2)n1 [I-6] | – | – | – | 100% | 100% | 100% | 100% | – | – | – | –
Cc1nc([C@H](C)NC(=O)c2cc(OC(F)F)cc(OC(F)F)c2)n(-c2cc(C(N)=O)ncn2)n1 [I-98] | 100% | 100% | 100% | 100% | 100% | 100% | 100% | – | – | – | –
Cc1nc([C@H](C)NC(=O)c2cc(Cl)cc(Cl)c2)n(-c2cc(C(N)=O)ncn2)n1 [I-95] | 90% | 100% | 100% | 100% | 100% | 100% | 100% | – | – | – | –
